Molecules are shown by their SMILES. Where only a bound is given, the exact number is not on record here.

One experiment addresses T1, GPR6 (Homo sapiens, UniProt P46095).
T1 construct: expressed in transfected cells; host or cells: CHO cells
As to the kind of experiment: GPR6 antagonist functional cAMP assay (LANCE Ultra cAMP TR-FRET, CHO cells stably expressing GPR6). It is filed as cell-based. Put shortly: (§1)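 10,000 cells/well; KRB buffer + 0.1% BSA + 150 μM Ro 20-1724; cpd 45 min, 37 °C, 0.1% DMSO; TR-FRET cAMP, 665 nm; 4-PL fit, normalized to DMSO (0.1%) and reference (100%) → IC50.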

A further experiment addresses T2, GPR3 (Homo sapiens, UniProt P46089).
T2 construct: expressed in transfected cells; host or cells: CHO cells
Put plainly: GPR3 antagonist functional cAMP assay (LANCE Ultra cAMP TR-FRET, CHO cells stably expressing GPR3). In kind it is cell-based. The procedure, abridged: as §1

[1] abbreviates: CHO cells stably expressing GPR6, cAMP assay.
The mark [2] stands for this setting: CHO cells stably expressing GPR3, cAMP assay.
Where [3] appears, read: CHO cells stably expressing GPR6, cAMP assay (Example 24).
[4] abbreviates: CHO cells stably expressing GPR3, cAMP assay (Example 24).
The mark [5] stands for this setting: procedure as described in Example 24.

T2 sequence (P46089 whole entry, species assumed): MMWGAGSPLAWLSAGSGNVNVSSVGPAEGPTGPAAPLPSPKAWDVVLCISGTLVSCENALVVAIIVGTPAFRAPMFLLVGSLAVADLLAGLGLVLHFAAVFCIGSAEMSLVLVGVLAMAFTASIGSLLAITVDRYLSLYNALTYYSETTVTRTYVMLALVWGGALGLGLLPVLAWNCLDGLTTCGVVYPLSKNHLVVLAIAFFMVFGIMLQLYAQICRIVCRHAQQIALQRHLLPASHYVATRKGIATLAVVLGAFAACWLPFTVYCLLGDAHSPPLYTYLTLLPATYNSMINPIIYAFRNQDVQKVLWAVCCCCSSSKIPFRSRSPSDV
T1 sequence (P46095 whole entry): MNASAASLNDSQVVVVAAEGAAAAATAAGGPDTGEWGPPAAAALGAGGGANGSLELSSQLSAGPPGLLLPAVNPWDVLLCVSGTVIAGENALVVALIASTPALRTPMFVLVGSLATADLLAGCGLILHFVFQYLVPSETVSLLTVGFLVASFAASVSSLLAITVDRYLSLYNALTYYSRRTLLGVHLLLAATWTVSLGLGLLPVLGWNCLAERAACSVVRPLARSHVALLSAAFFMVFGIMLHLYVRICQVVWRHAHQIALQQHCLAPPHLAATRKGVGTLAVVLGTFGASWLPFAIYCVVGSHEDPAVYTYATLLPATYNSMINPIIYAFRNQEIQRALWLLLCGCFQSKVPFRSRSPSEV

Regarding `CC(C)(O)C(=O)c1cc2nc(N3CCC(Oc4ccc(F)cc4F)CC3)c(-c3cnn(C(F)F)c3)nc2cn1` [Compound 616, 1-{3-[1-(difluoromethyl)-4-pyrazolyl]-2-[4-(2,4-difluorophenoxy)-1-piperidyl]-1,4,6-triaza-7-naphthyl}-2-hydroxy-2-methyl-1-propanone], the results for the IC50 at GPR6 (procedure of Example 24) and against GPR3 (procedure of Example 24) were 100 to 1000 nM and 1000 to 30000 nM, respectively.

Take `Cn1cc(-c2nc3cnc([C@](C)(O)CO)cc3nc2N2CCC(Oc3ccc(F)cc3F)CC2)cn1` (single isomer, unassigned) [Compound 565]: the 50% inhibitory concentration (IC50) at GPR6 (setting [1]) and against GPR3 (setting [2]) was 1000 to 30000 nM each time.

With `CC(=O)N1CCc2nc(N3CCC(COc4ccc(F)cc4)C3)c(-c3cnn(C)c3)nc2C1` (centres unmarked) [Compound 325, 1-(2-{3-[(4-fluorophenoxy)methyl]pyrrolidin-1-yl}-3-(1-methyl-1H-pyrazol-4-yl)-5H,6H,7H,8H-pyrido[3,4-b]pyrazin-6-yl)ethan-1-one], the IC50 against GPR6 (procedure of Example 24) and on GPR3 (procedure of Example 24) was 1000 to 30000 nM throughout.

As for `CC(=O)N1CCc2nc(N3CCC(Oc4ccc(F)cc4F)CC3)c(-c3cnn(-c4ccccc4)c3)nc2C1` [Compound 76, 1-{2-[4-(2,4-difluorophenoxy)piperidin-1-yl]-3-(1-phenyl-1H-pyrazol-4-yl)-5H,6H,7H,8H-pyrido[3,4-b]pyrazin-6-yl}ethan-1-one], the IC50 – broadly, the concentration that inhibits the measured activity by half – at GPR6 (setting [3]) fell in the range of 100 to 1000 nM; against GPR3 (setting [4]) it was 1000 to 30000 nM.

As for `COc1cc2nc(N3CCC(Oc4ccc(F)cc4F)CC3)c(-c3cnn(C)c3)nc2cn1` [Compound 410, 2-(4-(2,4-difluorophenoxy)piperidin-1-yl)-7-methoxy-3-(1-methyl-1H-pyrazol-4-yl)pyrido[3,4-b]pyrazine], the 50% inhibitory concentration (IC50) on GPR6 (setting [3]) and against GPR3 (setting [4]) was 1000 to 30000 nM each time.

As to `CC(C)(O)[C@@](C)(O)c1cc2nc(N3CCN(Cc4ccc(F)cc4F)CC3)c(-c3cnn(CF)c3)nc2cn1` (single isomer, unassigned) [Compound 650], the IC50 at GPR6 (procedure of Example 24) lay in the range of 100 to 1000 nM; against GPR3 (procedure of Example 24), 1000 to 30000 nM.

For `Clc1ccc(Cl)c(CN2CCN(c3nc4cnccc4nc3-c3ncc[nH]3)CC2)c1` [Compound 64, 1-[(2,5-dichlorophenyl)methyl]-4-[2-(1H-imidazol-2-yl)pyrido[3,4-b]pyrazin-3-yl]piperazine], the IC50 on GPR6 (setting [3]) and on GPR3 (setting [4]) was 100 to 1000 nM in each case.

Consider `Fc1ccc(OC2CCN(c3nc4cnccc4nc3-c3cn[nH]c3)CC2)c(F)c1` [Compound 100, 4-(2,4-difluorophenoxy)-1-[2-(1H-pyrazol-4-yl)pyrido[3,4-b]pyrazin-3-yl]piperidine], for which the IC50 at GPR6 (setting [3]) fell in the range of 100 to 1000 nM; against GPR3 (setting [4]), 1000 to 30000 nM.

Regarding `N#CN1CCc2nc(N3CCC(Oc4ccc(F)cc4F)CC3)c(-c3cn[nH]c3)nc2C1` [Compound 171, 2-[4-(2,4-difluorophenoxy)piperidin-1-yl]-3-(1H-pyrazol-4-yl)-5H,6H,7H,8H-pyrido[3,4-b]pyrazine-6-carbonitrile], the IC50 against GPR6 (setting [3]) was below 100 nM; on GPR3 (setting [4]), 1000 to 30000 nM.

Consider `CNc1nccc(-c2nc3c(nc2N2CCC(Oc4ccc(F)cc4F)CC2)CCN(C(C)=O)C3)n1` [Compound 473, 1-{2-[4-(2,4-difluorophenoxy)piperidin-1-yl]-3-[2-(methylamino)pyrimidin-4-yl]-5H,6H,7H,8H-pyrido[3,4-b]pyrazin-6-yl}ethan-1-one], for which the IC50 against GPR6 (setting [3]) was 100 to 1000 nM; at GPR3 (setting [4]) it was 1000 to 30000 nM.

As for `CCn1cc(-c2nc3cnc(CC(C)(C)O)cc3nc2N2CCC(Oc3ccc(F)cc3F)CC2)cn1` [Compound 706, 1-{2-[4-(2,4-difluorophenoxy)-1-piperidyl]-3-(1-ethyl-4-pyrazolyl)-1,4,6-triaza-7-naphthyl}-2-methyl-2-propanol], the 50% inhibitory concentration (IC50) was 100 to 1000 nM at GPR6 (procedure of Example 24) and 1000 to 30000 nM against GPR3 (procedure of Example 24).

For `CC(C)(O)C(O)c1cc2nc(-c3cnn(CF)c3)c(N3CCN(Cc4cc(F)ccc4F)CC3)nc2cn1` (single isomer, unassigned) [Compound 723], the results for the IC50 against GPR6 (procedure of Example 24) and at GPR3 (procedure of Example 24) were 100 to 1000 nM and 1000 to 30000 nM, respectively.

As for `OCC1CN(c2nc3ccncc3nc2-c2cn[nH]c2)CCN1Cc1ccc(F)cc1F` (single isomer, unassigned) [Compound 93, (4-(3-(1H-pyrazol-4-yl)pyrido[3,4-b]pyrazin-2-yl)-1-(2,4-difluorobenzyl)piperazin-2-yl)methanol], the half-maximal inhibitory concentration (IC50) is 1000 to 30000 nM on GPR6 (setting [3]) and at least 30000 nM against GPR3 (setting [4]).

Take `CNCC(O)c1cc2nc(N3CCC(Oc4ccc(F)cc4F)CC3)c(-c3cnn(C)c3)nc2cn1` (centres unmarked) [Compound 414, 1-{2-[4-(2,4-difluorophenoxy)piperidin-1-yl]-3-(1-methyl-1H-pyrazol-4-yl)pyrido[3,4-b]pyrazin-7-yl}-2-(methylamino)ethan-1-ol]: the IC50 against GPR6 (setting [3]) lay in the range of 100 to 1000 nM; against GPR3 (setting [4]) it was 1000 to 30000 nM.

In the case of `CC(=O)N1CCc2nc(N3CCC(C(C)(O)c4ccc(F)cc4F)CC3)c(-c3cnn(C)c3)nc2C1` (centres unmarked) [Compound 558, 1-(2-{4-[1-(2,4-difluorophenyl)-1-hydroxyethyl]-1-piperidyl}-3-(1-methyl-4-pyrazolyl)-5,6,7,8-tetrahydro-1,4,6-triaza-6-naphthyl)-1-ethanone], the IC50 on GPR6 (setting [1]) is 1000 to 30000 nM; against GPR3 (setting [2]), 100 to 1000 nM.

As for `Cn1cc(-c2nc3cc(C(O)C(C)(C)O)ncc3nc2N2CCC(Oc3ccc(F)cc3F)CC2)cn1` (single isomer, unassigned) [Compound 562], the IC50 at GPR6 (setting [1]) was below 100 nM; against GPR3 (setting [2]), 100 to 1000 nM.

Take `COc1cncc(-c2nc3cnc(CO)cc3nc2N2CCN(Cc3ccc(F)cc3F)CC2)n1` [Compound 95, (2-(4-(2,4-difluorobenzyl)piperazin-1-yl)-3-(6-methoxypyrazin-2-yl)pyrido[3,4-b]pyrazin-7-yl)methanol]: the IC50 against GPR6 (setting [3]) and against GPR3 (setting [4]) was 1000 to 30000 nM throughout.

As to `CC(C)(O)C(C)(O)c1cc2nc(-c3cnn(C(F)F)c3)c(N3CCN(Cc4ccccc4F)CC3)nc2cn1` (single isomer, unassigned) [Compound 708], the IC50 fell in the range of 100 to 1000 nM at GPR6 (procedure of Example 24) and 1000 to 30000 nM against GPR3 (procedure of Example 24).

As for `CC(=O)N1CCc2nc(N3CCC(Oc4ccc(F)cc4F)CC3)c(C3CCN(CC(F)(F)F)CC3)nc2C1` [Compound 496, 1-{2-[4-(2,4-difluorophenoxy)-1-piperidyl]-3-[1-(2,2,2-trifluoroethyl)-4-piperidyl]-5,6,7,8-tetrahydro-1,4,6-triaza-6-naphthyl}-1-ethanone], the IC50 on GPR6 (setting [1]) and at GPR3 (setting [2]) was 1000 to 30000 nM in each case.

In the case of `CC(=O)N1CCc2nc(N3CCN(Cc4cccn(C)c4=O)CC3)c(-c3cnn(C)c3)nc2C1` [Compound 534, 3-({4-[6-acetyl-3-(1-methyl-4-pyrazolyl)-5,6,7,8-tetrahydro-1,4,6-triaza-2-naphthyl]-1-piperazinyl}methyl)-1-methyl-2(1H)-pyridinone], the IC50 at GPR6 (setting [1]) and against GPR3 (setting [2]) was at least 30000 nM each time.

Take `CC(=O)N1CCc2nc(N3CCC(Oc4ccc(F)cc4F)CC3)c(C3CCC(F)(F)CC3)nc2C1` [Compound 217, 1-[3-(4,4-difluorocyclohexyl)-2-[4-(2,4-difluorophenoxy)piperidin-1-yl]-5H,6H,7H,8H-pyrido[3,4-b]pyrazin-6-yl]ethan-1-one]: the half-maximal inhibitory concentration (IC50) on GPR6 (setting [3]) and against GPR3 (setting [4]) was 1000 to 30000 nM each time.

Take `COc1ccc(-c2nc3c(nc2N2CCC(Oc4ccc(F)cc4F)CC2)CCN(C(C)=O)C3)cn1` [Compound 126, 1-{2-[4-(2,4-difluorophenoxy)piperidin-1-yl]-3-(6-methoxypyridin-3-yl)-5H,6H,7H,8H-pyrido[3,4-b]pyrazin-6-yl}ethan-1-one]: the IC50 was in the range of 100 to 1000 nM at GPR6 (setting [3]) and 1000 to 30000 nM against GPR3 (setting [4]).

Take `CC(=O)N1CCc2nc(N3CCC(Oc4ccc(F)cc4F)CC3)c(-c3cnc[nH]3)nc2C1` [Compound 84, 1-{2-[4-(2,4-difluorophenoxy)piperidin-1-yl]-3-(1H-imidazol-5-yl)-5H,6H,7H,8H-pyrido[3,4-b]pyrazin-6-yl}ethan-1-one]: the half-maximal inhibitory concentration (IC50) against GPR6 (setting [3]) and against GPR3 (setting [4]) was 1000 to 30000 nM in each case.

For the molecule `CNC(=O)Cn1cc(-c2nc3c(nc2N2CCC(Oc4ccc(F)cc4F)CC2)CCN(C(C)=O)C3)cn1` [Compound 25, 2-(4-{6-acetyl-2-[4-(2,4-difluorophenoxy)piperidin-1-yl]-5H,6H,7H,8H-pyrido[3,4-b]pyrazin-3-yl}-1H-pyrazol-1-yl)-N-methylacetamide], the IC50 against GPR6 (setting [5]) and against GPR3 (setting [5]) was 1000 to 30000 nM throughout.

As to `Cn1cc(-c2nc3cnc(C(O)C4CC4)cc3nc2N2CCC(Oc3ccc(F)cc3F)CC2)cn1` (centres unmarked) [Compound 250, cyclopropyl(2-(4-(2,4-difluorophenoxy)piperidin-1-yl)-3-(1-methyl-1H-pyrazol-4-yl)pyrido[3,4-b]pyrazin-7-yl)methanol], the half-maximal inhibitory concentration (IC50) against GPR6 (setting [3]) and on GPR3 (setting [4]) was 1000 to 30000 nM each time.

On to `CC(C)(O)C(=O)c1cc2nc(N3CCN(Cc4ccc(F)cc4F)CC3)c(-c3cnn(C(F)F)c3)nc2cn1` [Compound 566, 1-{3-[1-(difluoromethyl)-4-pyrazolyl]-2-{4-[(2,4-difluorophenyl)methyl]-1-piperazinyl}-1,4,6-triaza-7-naphthyl}-2-hydroxy-2-methyl-1-propanone], for which the IC50 against GPR6 (setting [1]) was in the range of 100 to 1000 nM; on GPR3 (setting [2]), 1000 to 30000 nM.

On to `CC(=O)N1CCc2nc(N3CCC(=Cc4ccc(F)cc4F)CC3)c(-c3cnn(C)c3)nc2C1` [Compound 542, 1-(2-(4-(2,4-difluorobenzylidene)piperidin-1-yl)-3-(1-methyl-1H-pyrazol-4-yl)-7,8-dihydropyrido[3,4-b]pyrazin-6(5H)-yl)ethan-1-one], for which the concentration for half-maximal inhibition (IC50) at GPR6 (setting [1]) is below 100 nM; at GPR3 (setting [2]) it was 100 to 1000 nM.

Regarding `COCn1ccnc1-c1nc2ccncc2nc1N1CCN(Cc2ccc(F)cc2Cl)CC1` [Compound 28, 1-[(2-chloro-4-fluorophenyl)methyl]-4-{2-[1-(methoxymethyl)-1H-imidazol-2-yl]pyrido[3,4-b]pyrazin-3-yl}piperazine], the half-maximal inhibitory concentration (IC50) against GPR6 (setting [5]) is at least 30000 nM; against GPR3 (setting [5]), 100 to 1000 nM.

The values above are taken from patent US20260042755A1, “GPR6 INVERSE AGONISTS” (MapLight Therapeutics, Inc., priority 2022, published 2026).
